Test results from patent publication US20230329282A1, “Application of 1-Deoxynojirimycin in Feed for Improving Nutritional Value and Sensory Effect of Rabbit Meat Products” (priority 2023, published 2023).
Marks after values point to notes of the source that are not given here.

Assays:
[1] = test system: New Zealand white rabbits; conditions: cited from earlier work
[2] = test system: New Zealand white rabbits; assay: Fatty acid composition of rabbit meat by GC/MS; assay type: in vivo; conditions: 28 d
Source text: The single-factor completely randomized test design is adopted. 36 45-day-old healthy New Zealand white rabbits (male) with the average weight of (1.05±0.04) kg are selected and randomly divided into 3 groups, and each group has 12 replicates with 1 rabbit per replicate. A control group is fed with a basal diet, an L-DNJ group is fed with the basal diet+0.14 g/kg DNJ, and an H-DNJ group is fed with the basal diet+0.28 g/kg DNJ. The diet is uniformly mixed to be prepared into cylindrical particles with the diameter of 6 mm and the length of 1 cm. The preliminary trial period is 14 d, and the trial period is 28 d. 10 g of meat sample is crushed, total fat is extracted after freeze-drying and converted to fatty acid methyl ester using a mixture of boron trifluoride, hexane and methanol (35:20:45 v/v), and then the fatty acid composition and content are measured with a gas chromatograph-mass spectrometer GC/MS (Model 7890-5975, Agilent Technologies, Inc.) with a 60 m×0.25 mm×0.25 μm capillary column. Gas chromatographic conditions are set as follows: the injector temperature is 220° C., and the detector temperature is 275° C.; and the initial column chamber temperature is 140° C. for 5 min, then increased to 240° C. at a rate of 4° C./min and maintained at 240° C. for 15 min. Finally, the fatty acid is measured with a […]. The ionization energy is 70 eV, the ion source temperature is 200° C., and the scanning range is 50-500 m/z. The retention time of each peak in the chromatogram is compared with that of a mixed standard of 37 fatty acid methyl esters (B25881, Shanghai Yuanye Bio-technology Co., Ltd.) to determine the properties of each peak. Three measurements are made for each sample, and the results are averaged.

[3] = Zhong Jingbo et al. 2021, higher additive amount
[4] = high-concentration mulberry leaf DNJ (0.4 g/kg and 2 g/kg), Zhong Jingbo et al., Xie Hui et al.
[5] = H-DNJ: basal diet+0.28 g/kg DNJ
[6] = L-DNJ: basal diet+0.14 g/kg DNJ

Question: For OC[C@H]1NC[C@H](O)[C@@H](O)[C@@H]1O [DNJ, 1-deoxynojirimycin], which “brightness L* of rabbit meat” value [1, 3] is on record?
Answer: increase

Question: And the “redness α* of rabbit meat” value [1, 3]?
Answer: no effect

Question: What about the “activity of the duodenal amylase” value [1, 4] of the same compound?
Answer: decrease

Question: And the “digestibility of dry matter and ether extract in diet” value [1, 4]?
Answer: decrease

Question: And the “weight gain of animals” value [1, 4]?
Answer: slow weight gain

Question: And the “MUFA C16:1n7c in rabbit meat” value [2, 5]?
Answer: 2.06%

Question: What about the “MUFA C16:1n9c in rabbit meat” value [2, 5] of the same compound?
Answer: 0.42%

Question: What about the “MUFA C17:1n7c in rabbit meat” value [2, 5] of the same compound?
Answer: 0.21%

Question: And the “MUFA C18:1n9c in rabbit meat” value [2, 5]?
Answer: 23.01ª %

Question: What about the “MUFA C18:1n9t in rabbit meat” value [2, 5] of the same compound?
Answer: 2.86ª %

Question: And the “MUFA C20:1n9t in rabbit meat” value [2, 5]?
Answer: 0.24^a %

Question: And the “Monounsaturated fatty acid (MUFA) total” value [2, 5]?
Answer: 27.13%

Question: And the “PUFA C16:3n4c in rabbit meat” value [2, 5]?
Answer: 0.19ª %

Question: And the “PUFA C18:2n6c (linoleic acid) in rabbit meat” value [2, 5]?
Answer: 31.77ª %

Question: What about the “PUFA C20:2n6c in rabbit meat” value [2, 5] of the same compound?
Answer: 0.57^ab %

Question: And the “PUFA C20:3n6c in rabbit meat” value [2, 5]?
Answer: 0.43%

Question: And the “PUFA C20:4n6c (arachidonic acid) in rabbit meat” value [2, 5]?
Answer: 2.67ª %

Question: And the “PUFA C22:4n6c in rabbit meat” value [2, 5]?
Answer: 0.31%

Question: What about the “PUFA C22:5n6c (DPA) in rabbit meat” value [2, 5] of the same compound?
Answer: 0.13%

Question: What about the “Polyunsaturated fatty acid (PUFA) total” value [2, 5] of the same compound?
Answer: 36.07ª %

Question: What about the “SFA 9Methyl C14:0 in rabbit meat” value [2, 5] of the same compound?
Answer: 0.07%

Question: And the “SFA 12Methyl C13:0 in rabbit meat” value [2, 5]?
Answer: 0.14^b %

Question: And the “SFA 13Methyl C14:0 in rabbit meat” value [2, 5]?
Answer: 0.13ª %

Question: And the “SFA 14Methyl C15:0 in rabbit meat” value [2, 5]?
Answer: 0.26%

Question: What about the “SFA 14methyl C16:0 in rabbit meat” value [2, 5] of the same compound?
Answer: 0.10%

Question: And the “SFA C10:0 in rabbit meat” value [2, 5]?
Answer: 0.25%

Question: And the “SFA C12:0 in rabbit meat” value [2, 5]?
Answer: 0.92^b %

Question: What about the “SFA C14:0 in rabbit meat” value [2, 5] of the same compound?
Answer: 2.14%

Question: And the “SFA C15:0 in rabbit meat” value [2, 5]?
Answer: 0.53%

Question: And the “SFA C16:0 in rabbit meat” value [2, 5]?
Answer: 26.52^b %

Question: And the “SFA C17:0 in rabbit meat” value [2, 5]?
Answer: 0.52ª %

Question: What about the “SFA C18:0 in rabbit meat” value [2, 5] of the same compound?
Answer: 5.11^b %

Question: And the “SFA C20:0 in rabbit meat” value [2, 5]?
Answer: 0.11%

Question: And the “Saturated fatty acid (SFA) total” value [2, 5]?
Answer: 36.75^b %

Question: And the “Unsaturated fatty acid (UFA) total” value [2, 5]?
Answer: 63.20ª %

Question: What about the “MUFA C16:1n7c in rabbit meat” value [2, 6] of the same compound?
Answer: 1.89%

Question: And the “MUFA C16:1n9c in rabbit meat” value [2, 6]?
Answer: 0.51%

Question: What about the “MUFA C17:1n7c in rabbit meat” value [2, 6] of the same compound?
Answer: 0.22%

Question: What about the “MUFA C18:1n9c in rabbit meat” value [2, 6] of the same compound?
Answer: 20.60^b %

Question: And the “MUFA C18:1n9t in rabbit meat” value [2, 6]?
Answer: 1.08^b %

Question: What about the “MUFA C20:1n9t in rabbit meat” value [2, 6] of the same compound?
Answer: 0.16^b %

Question: What about the “Monounsaturated fatty acid (MUFA) total” value [2, 6] of the same compound?
Answer: 24.45%

Question: And the “PUFA C16:3n4c in rabbit meat” value [2, 6]?
Answer: 0.13^b %

Question: And the “PUFA C18:2n6c (linoleic acid) in rabbit meat” value [2, 6]?
Answer: 28.40^b %

Question: What about the “PUFA C20:2n6c in rabbit meat” value [2, 6] of the same compound?
Answer: 0.44^b %

Question: And the “PUFA C20:3n6c in rabbit meat” value [2, 6]?
Answer: 0.15%

Question: And the “PUFA C20:4n6c (arachidonic acid) in rabbit meat” value [2, 6]?
Answer: 1.61^b %

Question: What about the “PUFA C22:4n6c in rabbit meat” value [2, 6] of the same compound?
Answer: 0.39%

Question: And the “Polyunsaturated fatty acid (PUFA) total” value [2, 6]?
Answer: 31.12^b %

Question: And the “SFA 9Methyl C14:0 in rabbit meat” value [2, 6]?
Answer: 0.06%

Question: What about the “SFA 12Methyl C13:0 in rabbit meat” value [2, 6] of the same compound?
Answer: 0.30^a %

Question: What about the “SFA 13Methyl C14:0 in rabbit meat” value [2, 6] of the same compound?
Answer: 0.12ª %

Question: What about the “SFA 14Methyl C15:0 in rabbit meat” value [2, 6] of the same compound?
Answer: 0.27%

Question: What about the “SFA 14methyl C16:0 in rabbit meat” value [2, 6] of the same compound?
Answer: 0.11%

Question: And the “SFA C10:0 in rabbit meat” value [2, 6]?
Answer: 0.20%

Question: And the “SFA C12:0 in rabbit meat” value [2, 6]?
Answer: 1.71ª %

Question: And the “SFA C14:0 in rabbit meat” value [2, 6]?
Answer: 2.16%

Question: What about the “SFA C15:0 in rabbit meat” value [2, 6] of the same compound?
Answer: 0.52%

Question: What about the “SFA C16:0 in rabbit meat” value [2, 6] of the same compound?
Answer: 30.16ª %

Question: What about the “SFA C17:0 in rabbit meat” value [2, 6] of the same compound?
Answer: 0.46^b %

Question: What about the “SFA C18:0 in rabbit meat” value [2, 6] of the same compound?
Answer: 8.22ª %

Question: What about the “SFA C20:0 in rabbit meat” value [2, 6] of the same compound?
Answer: 0.11%

Question: What about the “Saturated fatty acid (SFA) total” value [2, 6] of the same compound?
Answer: 44.48ª %

Question: And the “Unsaturated fatty acid (UFA) total” value [2, 6]?
Answer: 55.57^b %
